# Test results: US12459951B2, “Compounds that interact with RAS superfamily proteins for treatment of cancers, inflammatory diseases, rasopathies, and fibrotic disease” (SHY Therapeutics, LLC, priority 2022, dated 2025)
# Tested on: not listed separately
# Experiment: Kinetic Solubility Assay in pH 7.4 Buffer + 2% DMSO
# Type: physicochemical
# Settings: phosphate-buffered saline pH 7.4 with 2% DMSO, aqueous buffer, kinetic from dmso stock, 25° C., two hours
# Procedure: Biological Example 9: Kinetic Solubility
# Kinetic solubility assay in pH 7.4 Buffer+2% DMSO (“Kinetic Solubility Assay) was performed according to the following protocol: Briefly, using a 20 mM stock solution of the tested compounds in 100% DMSO, dilutions were prepared to a theoretical concentration of 400 μM in duplicates in phosphate-buffered saline pH 7.4 (138 mM NaCl, 2.7 mM KCl, 10 mM K-phosphate) with 2% final DMSO. The tested compounds dilutions in PBS were further allowed to equilibrate at 25° C. on a thermostatic shaker for two hours and then filtered through HTS filter plates using a vacuum manifold. The filtrates of the test compounds were diluted 2-fold with acetonitrile with 2% DMSO before measuring.
# In parallel, using a 20 mM stock solution of the tested compounds in 100% DMSO, dilutions were prepared to theoretical concentrations of 0 μM (blank), 10 μM, 25 μM, 50 μM, 100 μM, and 200 μM in 50% acetonitrile/PBS with 2% final DMSO to generate calibration curves. Ondansetron was used as a reference compound to control proper assay performance. 200 μL of each sample was transferred to a 96-well plate and measured in the 230-550 nm range with a 5 nm step.
# The concentrations of compounds in PBS filtrate are calculated using a dedicated Microsoft Excel calculation script. Proper absorbance wavelengths for calculations are selected for each compound manually based on absorbance maximums (absolute absorbance unit values for the minimum and maximum concentration points within the 0-3 OD range). Each final dataset is visually evaluated by the operator, and goodness of fit (R2) is calculated for each calibration curve. The effective range of this assay is approximately 2-400 μM and the compounds returning values close to the upper limit of the range may have higher actual solubility (e.g., 5′-deoxy-5-fluorouridine).
# Table 8 show kinetic solubility data for selected compounds tested in the Kinetic Solubility assay described above.
row,solubility at 2 h [µM],SMILES
1,10 to 30,"Cc1c(-c2ccn(C)n2)cn2nc(-c3nccn3C)nc(Nc3cc4c(cn3)CCO4)c12 [Compound 221, N-(5-Methyl-2-(1-methyl-1H-imidazol-2-yl)-6-(1-methyl-1H-pyrazol-3-yl)pyrrolo[2,1-f][1,2,4]triazin-4-yl)-2,3-dihydrofuro[3,2-c]pyridin-6-amine]"
2,10 to 30,"Cc1c(-c2ccn(C)n2)cn2nc(-c3nccn3C)nc(Nc3cc(N4CCOCC4)ccn3)c12 [Compound 222, 5-Methyl-2-(1-methyl-1H-imidazol-2-yl)-6-(1-methyl-1H-pyrazol-3-yl)-N-(4-morpholinopyridin-2-yl)pyrrolo[2,1-f][1,2,4]triazin-4-amine]"
3,< 10,"COc1ccc(Nc2nc(-c3nccn3C)nn3cc(-c4ccn(C)n4)c(C)c23)nc1 [Compound 224, N-(5-Methoxypyridin-2-yl)-5-methyl-2-(1-methyl-1H-imidazol-2-yl)-6-(1-methyl-1H-pyrazol-3-yl)pyrrolo[2,1-f][1,2,4]triazin-4-amine]"
4,< 10,"Cc1c(-c2ccn(C)n2)cn2nc(-c3nccn3C)nc(Nc3ccc(N(C)C)cn3)c12 [Compound 227, N5,N5-Dimethyl-N2-(5-methyl-2-(1-methyl-1H-imidazol-2-yl)-6-(1-methyl-1H-pyrazol-3-yl)pyrrolo[2,1-f][1,2,4]triazin-4-yl)pyridine-2,5-diamine]"

# Second part, the molecule before the results:
row,SMILES,solubility at 2 h [µM]
1,"Cc1ccc(Nc2nc(-c3nccn3C)nn3cc(-c4ccn(C)n4)c(C)c23)nc1 [Compound 226, 5-Methyl-2-(1-methyl-1H-imidazol-2-yl)-6-(1-methyl-1H-pyrazol-3-yl)-N-(5-methylpyridin-2-yl)pyrrolo[2,1-f][1,2,4]triazin-4-amine]",< 10
2,"COc1cc(Nc2nc(-c3nccn3C)nn3cc(-c4ccn(C)n4)c(C)c23)ncc1C [Compound 235, N-(4-Methoxy-5-methylpyridin-2-yl)-5-methyl-2-(1-methyl-1H-imidazol-2-yl)-6-(1-methyl-1H-pyrazol-3-yl)pyrrolo[2,1-f][1,2,4]triazin-4-amine]",< 10
3,"COc1cc(Nc2nc(-c3nccn3C)nn3cc(-c4ccn(C)n4)c(C)c23)ncc1C1CC1 [Compound 238, N-(5-Cyclopropyl-4-methoxypyridin-2-yl)-5-methyl-2-(1-methyl-1H-imidazol-2-yl)-6-(1-methyl-1H-pyrazol-3-yl)pyrrolo[2,1-f][1,2,4]triazin-4-amine]",< 10

# Molecular target: T1, Rho-A (Homo sapiens, UniProt P61586)
# T1 construct: made in house
# T1 sequence (P61586 whole entry): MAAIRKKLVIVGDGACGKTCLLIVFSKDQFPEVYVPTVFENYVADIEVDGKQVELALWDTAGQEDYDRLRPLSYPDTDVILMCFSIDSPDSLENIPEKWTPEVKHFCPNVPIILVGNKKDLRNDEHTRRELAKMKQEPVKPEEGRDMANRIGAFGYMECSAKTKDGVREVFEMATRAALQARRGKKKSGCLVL
# Experiment: Ras GTP Binding Domain Inhibition Assay (Ras Superfamily Assay)
# Settings: read-out: Rho-A: % inh..
# Method in brief: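 His-tagged GTPases immobilised on nickel-coated plates, pre-incubated with compound (20 μM single point, or serial dilution for IC50) 3 h at room temperature, with or without 10-30 μg/mL Sos (residues 556-1049) in the final hour. Bound Cy3- or Cy5-GTP (100 nM, 45 min) measured by fluorescence after washing.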
row,inhibition at 20 µM [%],SMILES
1,0,"COCC1CCN(c2nc(-c3ccccn3)nn3cc(-c4ccn(C(C)C)n4)c(C)c23)C1 (racemic) [Compound 10, rac 6-(1-Isopropyl-1H-pyrazol-3-yl)-4-(3-(methoxymethyl)pyrrolidin-1-yl)-5-methyl-2-(pyridin-2-yl)pyrrolo[2,1-f][1,2,4]triazine]"
2,0,"COC[C@@H]1CC[C@@H]1CNc1nc(-c2ccccn2)nn2cc(-c3ccn(C(C)C)n3)c(C)c12 (racemic) [Compound 11, rac 6-(1-Isopropyl-1H-pyrazol-3-yl)-N-(((1S,2R)-2-(methoxymethyl)cyclobutyl)methyl)-5-methyl-2-(pyridin-2-yl)pyrrolo[2,1-f][1,2,4]triazin-4-amine]"

# Continued, molecule first:
row,SMILES,inhibition at 20 µM [%]
1,"COC1CCCN(c2nc(-c3ccccn3)nn3cc(-c4ccn(C(C)C)n4)c(C)c23)C1 (racemic) [Compound 12, rac 6-(1-Isopropyl-1H-pyrazol-3-yl)-4-(3-methoxypiperidin-1-yl)-5-methyl-2-(pyridin-2-yl)pyrrolo[2,1-f][1,2,4]triazine]",0
2,"COc1cc(Nc2nc(-c3ccccn3)nn3cc(-c4ccn(C(C)C)n4)c(C)c23)ncn1 [Compound 13, 6-(1-Isopropyl-1H-pyrazol-3-yl)-N-(6-methoxypyrimidin-4-yl)-5-methyl-2-(pyridin-2-yl)pyrrolo[2,1-f][1,2,4]triazin-4-amine]",0
3,"COc1cccc(Nc2nc(-c3ccccn3)nn3cc(-c4ccn(C(C)C)n4)c(C)c23)n1 [Compound 14, 6-(1-Isopropyl-1H-pyrazol-3-yl)-N-(6-methoxypyridin-2-yl)-5-methyl-2-(pyridin-2-yl)pyrrolo[2,1-f][1,2,4]triazin-4-amine]",0
4,"COc1cccc(-c2cn3nc(-c4nccn4C)nc(O)c3c2C)c1Cl [Compound 15, 6-(2-Chloro-3-methoxyphenyl)-5-methyl-2-(1-methyl-1H-imidazol-2-yl)pyrrolo[2,1-f][1,2,4]triazin-4-ol]",1 to 25
5,"COCCNc1nc(-c2nccn2C)nn2cc(-c3cccc(OC)c3Cl)c(C)c12 [Compound 16, 6-(2-Chloro-3-methoxyphenyl)-N-(2-methoxyethyl)-5-methyl-2-(1-methyl-1H-imidazol-2-yl)pyrrolo[2,1-f][1,2,4]triazin-4-amine]",0
